The source of these data is article PMC11124413, “Synthesis, Antibacterial Effects, and Toxicity of Licochalcone C” (Pharmaceuticals, 2024).

The subject of data set [1] is MRSA (ATCC BAA44). The data set can be described thus: MIC, broth microdilution with resazurin. The data set is classed as cell-based. The following applies: Staphylococcus aureus (MRSA); mean of triplicates; read-out: MIC. (Dilution methods test growth across graded concentrations, often in twofold steps.)
For data set [2], the system named is MRSA planktonic cells. Nature of the data set: Checkerboard assay. It counts as cell-based, S. aureus. Here is the method: (§1) The combinations of LCC with tetracycline and vancomycin were evaluated against MSSA and MRSA, respectively, using a microdilution broth checkerboard assay, according to White and collaborators, adapted with the standard procedure established by the CLSI [51, 54]. The fractional inhibitory concentration (FIC) of the combination between LCC and tetracycline or vancomycin was determined using Mueller–Hinton broth culture medium into 96-well plates, with a final inoculum suspension of 5.0 × 10^5 CFU/mL, incubated at 37 °C for 24 h. After incubation, an aqueous resazurin solution (0.02%) was added to the wells and the FIC values (ratio between the MIC of the drug in combination and the MIC of the drug alone) were determined for each drug (Equations (1) and (2)). The fractional inhibitory concentration index (FICI) was calculated using Equation (3). (1) FICLCC=MIC of drug A in combination/MIC of drug A alone (2) FICD=MIC of drug B in combination/MIC of drug B alone FIC Index (FICI) = FICLCC + FICD(3)
(§2) The combination was classified as synergistic (FICI ≤ 0.5), indifferent (0.5 < FICI < 4), and antagonistic (FICI ≥ 4). The assays were performed in triplicate in independent experiments.

In data set [3] the test system is MRSA biofilm. The data set can be described thus: Antibiofilm assay (biofilm formation). It counts as cell-based, S. aureus. The following applies: MRSA biofilm formation.
Data set [4] deals with M. tuberculosis (ATCC 27294). Nature of the data set: Antimycobacterial MIC, resazurin microtiter assay. The conditions noted are these: ATCC27294; Mycobacterium tuberculosis; mean of triplicates. It counts as cell-based. Background: Alamar Blue is a resazurin reagent that responds to reducing activity.
Data set [5] concerns M. avium (ATCC 25291). The data set can be described thus: Antimycobacterial MIC, resazurin microtiter assay. It counts as cell-based. The following applies: ATCC25291; Mycobacterium avium; mean of triplicates.
Data set [6] relates to M. kansasii (ATCC 12478). The data set can be described thus: Antimycobacterial MIC, resazurin microtiter assay. The data set is classed as cell-based. The conditions noted are these: ATCC12478; Mycobacterium kansasii; mean of triplicates.
The test system of data set [7] is Staphylococcus aureus (ATCC 29213) membrane. The data set can be described thus: Membrane disruption assay, fluorescence microscopy with SYTO9 and propidium iodide. The following applies: S. aureus; LCC at MIC 12.5 µg/mL, 15 min; nisin positive control.
Procedure: Two fluorescent dyes propidium iodide (PI) and SYTO9 were added, which stain cells with disrupted membranes (in pink) and whole membranes (in blue).
The assay was performed using Staphylococcus aureus (ATCC 29213), an MSSA strain. Bacterial cells were cultivated in solid TSA broth (tryptone soya) at 36 °C and stirred at 200 rpm. […] Cells were stained with the Live/Dead BacLight Kit (Thermo-Scientific® L7012, Carlsbad, CA, USA), which is composed of two nucleic acid dyes: SYTO9, which stains all cells, and propidium iodide, which penetrates cells with damaged membranes [60]. The stained cells were immobilized on agarose-covered slides as described by Martins [61]. Untreated S. aureus cells with intact membranes were used as negative controls, and S. aureus cells exposed to nisin (Sigma-Aldrich® N5764, St. Louis, MO, USA) were used as positive controls for membrane damage [62]. Microscopic analyses were carried out using an Olympus BX-61 microscope, equipped with a monochromatic OrcaFlash-2.8 camera (Hamamatsu, Japan), and the software CellSens Dimension Version 11 (Olympus).
The subject of data set [8] is MSSA (ATCC 6538). The data set can be described thus: MIC, broth microdilution with resazurin. The following applies: Staphylococcus aureus (MSSA); mean of triplicates; read-out: MIC. The data set is classed as cell-based.
For data set [9], the system named is S. epidermidis (ATCC 14990). The data set can be described thus: MIC, broth microdilution with resazurin. It counts as cell-based. The following applies: ATCC14990; Staphylococcus epidermidis; mean of triplicates.
Data set [10] has as its system E. faecalis (ATCC 1299). Nature of the data set: MIC, broth microdilution with resazurin. It counts as cell-based. The conditions noted are these: ATCC1299; Enterococcus faecalis; mean of triplicates.
For data set [11], the system named is S. pneumoniae (ATCC 6305). The data set can be described thus: MIC, broth microdilution with resazurin. The data set is classed as cell-based. The conditions noted are these: ATCC6305; Streptococcus pneumoniae; mean of triplicates.
Data set [12] relates to H. pylori (ATCC 43526). The data set can be described thus: MIC, broth microdilution with resazurin. It counts as cell-based. The following applies: ATCC43526; Helicobacter pylori; mean of triplicates; read-out: MIC.
The test system of data set [13] is P. aeruginosa (ATCC 27853). Nature of the data set: MIC, broth microdilution with resazurin. The data set is classed as cell-based. The conditions noted are these: ATCC27853; Pseudomonas aeruginosa; mean of triplicates; read-out: MIC.
In data set [14] the test system is K. pneumoniae (ATCC 23883). Nature of the data set: MIC, broth microdilution with resazurin. It counts as cell-based. The following applies: ATCC23883; Klebsiella pneumoniae; mean of triplicates; read-out: MIC.
The subject of data set [15] is Escherichia coli (ATCC 25922). The data set can be described thus: MIC, broth microdilution with resazurin. It counts as cell-based. The following applies: ATCC25922, mean of triplicates, read-out: MIC.
Data set [16] has as its system MSSA planktonic cells. The data set can be described thus: Checkerboard assay. It counts as cell-based, S. aureus. As for the experimental part: as §1, §2
Data set [17] deals with MSSA biofilm. Nature of the data set: Antibiofilm assay (biofilm formation). The data set is classed as cell-based, S. aureus. The conditions noted are these: MSSA biofilm formation.
In data set [18] the test system is Galleria mellonella larvae. Nature of the data set: Systemic toxicity in Galleria mellonella larvae. It counts as in vivo. The conditions noted are these: 100% DMSO; after 40 h.
Procedure: The systemic toxicity assay was performed to evaluate the acute toxic effects of LCC, following the procedures described by Megaw [63]. For the experiment, 10 healthy larvae from G. mellonella were randomly selected for each concentration test, with a weight range between 0.2 g and 0.3 g and without melanization aspects. The larvae were chilled on ice for 20 min and had their prolegs cleaned with 70% ethanol. […] Five microliters of the solution were injected into the hemocoel of each larva through the last left proleg using a 25 µL Hamilton syringe. After the administration, the larvae were incubated at 37 °C and their survival was monitored in selected intervals over 72 h. The larvae unable to move when touched and showing elevated levels of melanization were counted as dead. Experiments were performed in triplicate.
For data set [19], the system named is S. sanguinis (ATCC 10556). The data set can be described thus: MIC, broth microdilution with resazurin. It counts as cell-based. The following applies: ATCC10556; Streptococcus sanguinis; mean of triplicates.
Data set [20] deals with S. sobrinus (ATCC 33478). The data set can be described thus: MIC, broth microdilution with resazurin. The conditions noted are these: ATCC33478; Streptococcus sobrinus; mean of triplicates. It counts as cell-based.
Data set [21] deals with S. mutans (ATCC 25175). The data set can be described thus: MIC, broth microdilution with resazurin. The data set is classed as cell-based. The conditions noted are these: ATCC25175; Streptococcus mutans; mean of triplicates.
In data set [22] the test system is Gram-negative strains. Also on record: method as in PMID 20160051. The conditions noted are these: without efflux pump inhibitor (EPI); cited from earlier work.

Values after ≈ are worked out from the molar mass of the structure shown. Values joined by “and” are separate entries in the source; they are usually repeats but may differ in a detail not shown here. Equal values may be shown once. Positions of bridges follow the written chain, without caps; N, C: chain ends. Non-standard residues stand in square brackets, D forms with d. No end group written: not given here. Abu = CC[C@H](N)C(=O)O; Dhb = C/C=C(\N)C(=O)O; Dha = C=C(N)C(=O)O

By MIC is commonly meant the smallest concentration in the dilution series that meets the test's criterion for growth inhibition.

In the case of `CN[C@H](CC(C)C)C(=O)N[C@H]1C(=O)N[C@@H](CC(N)=O)C(=O)N[C@H]2C(=O)N[C@H]3C(=O)N[C@H](C(=O)N[C@H](C(=O)O)c4cc(O)cc(O)c4-c4cc3ccc4O)[C@H](O)c3ccc(c(Cl)c3)Oc3cc2cc(c3O[C@@H]2O[C@H](CO)[C@@H](O)[C@H](O)[C@H]2O[C@H]2C[C@](C)(N)[C@H](O)[C@H](C)O2)Oc2ccc(cc2Cl)[C@H]1O` [Vancomycin, vancomycin, reference compound], the MIC in data set [1] was 0.73 µg/mL (≈ 0.504 µM); in [2] (Staphylococcus aureus, read-out: MIC Alone), 0.73 µg/mL. The “MIC Combined” value in [2] (checkerboard, in combination LCC + VAN) turned out to be 0.36 µg/mL. The “FICD (fractional inhibitory concentration for the associated drug)” value in data set [2] (combination LCC + VAN) is 0.5. Further, the “MBIC50 (minimum biofilm inhibitory concentration)” value in data set [3] was 0.737 µg/mL and 0.7375 µg/mL.

Take `NNC(=O)c1ccncc1` [Isoniazid, reference compound]: the MIC is 0.5 µg/mL (≈ 3.65 µM) in [4], over 1 µg/mL in data set [5] and 1 µg/mL (≈ 7.29 µM) in [6].

In the case of “nisin (I[Dhb]AI[Dha]LC[Abu]PGCK[Abu]GALMGCNMK[Abu]A[Abu]CHCSIHV[Dha]K; thioether 8-11, 13-19, 23-26, 25-28, 3-7; UniProt P13068 24-57, looked up) [reference compound]”, in data set [7], the “percentage of cells with permeabilized membrane (stained with both fluorophores)” value worked out at 95%.

On to `CN(C)[C@@H]1C(O)=C(C(N)=O)C(=O)[C@@]2(O)C(O)=C3C(=O)c4c(O)cccc4[C@@](C)(O)[C@H]3C[C@@H]12` [Tetracycline, tetracycline, reference compound], for which the MIC in [8] is 0.09 µg/mL (≈ 0.203 µM); in data set [9], over 5.9 µg/mL; in data set [10], 3.3 µg/mL (≈ 7.43 µM); in data set [11], 0.4 µg/mL (≈ 0.9 µM); in [12], 1.47 µg/mL (≈ 3.31 µM); in [13] it was 5.9 µg/mL (≈ 13.3 µM). For the same molecule, the MIC in [14] was 1.47 µg/mL (≈ 3.31 µM); in data set [15] it was 0.73 µg/mL (≈ 1.64 µM); in [16] (Staphylococcus aureus, checkerboard, drug alone), 0.09 µg/mL. Further, in data set [16] (checkerboard, in combination LCC + TC), the “MIC Combined” value was 0.18 µg/mL. Besides, in data set [16] (combination LCC + TC), the “FICD (fractional inhibitory concentration for the associated drug)” value is given as 2.0. Moreover, the “MBIC50 (minimum biofilm inhibitory concentration)” value in data set [17] worked out at 0.046 µg/mL.

With `C[S+](C)[O-]` [DMSO, dimethyl sulfoxide, reference compound], the lethality to larvae result in data set [18] is “total lethality”.

As to `[H]/N=C(\N/C(=N/[H])NCCCCCCNC(=N)NC(=N)Nc1ccc(Cl)cc1)Nc1ccc(Cl)cc1` [Chlorhexidine, chlorhexidine, reference compound], the MIC in data set [19] came to 1.8 µg/mL (≈ 3.56 µM); in data set [20], 3.6 µg/mL (≈ 7.12 µM); in data set [21] it was 0.4 µg/mL (≈ 0.791 µM).

As for `CC(C)=CCc1c(O)ccc(C(=O)/C=C/c2ccc(O)cc2)c1O` [IBC, isobavachalcone], the antibacterial activity entry in data set [22] is listed as “weakly active”.
